The source of these data is patent US9556221B2, “N-acetyl amino acid ESTER derivatives of betulin and preparation method thereof” (Northeast Forestry University, priority 2014, dated 2017).

Holding throughout (format): cell-based
The subject of experiment [1] is pancreatic cancer cell lines MPC2. As to the kind of experiment: MTT assay, in vitro anti-tumor activity screening, MPC2. The conditions noted are these: Homo sapiens, MPC2 pancreatic cancer cell line, read-out: half inhibitory concentration IC50, MPC2. An excerpt:
(§1) The present invention also relates to the application of the N-acetyl amino acid ester derivatives of betulin for the preparation of anti-tumor drugs.
(§2) Human colon tumor cell lines HT29, pancreatic cancer cell lines MPC2 and ovarian cancer cell lines MDAH2774 were selected to determine the half inhibitory concentrations (IC50s) of the N-acetyl amino acid ester derivatives of betulin, betulinic acid and betulin, and the results are shown in Table 2.

In experiment [2] the test system is Human colon tumor cell lines HT29. As to the kind of experiment: MTT assay, in vitro anti-tumor activity screening, HT29. Particulars: HT-29, HT29 colon tumor cell line, read-out: half inhibitory concentration IC50, HT29.
From the text: as §1, §2

Experiment [3] has as its system ovarian cancer cell lines MDAH2774. In words: MTT assay, in vitro anti-tumor activity screening, MDAH2774. Particulars: Homo sapiens, MDAH 2774, MDAH2774 ovarian cancer cell line, read-out: half inhibitory concentration IC50, MDAH2774.
From the text: as §1, §2

SMILES strings stand for the structures. Where only a bound is given, the exact number is not on record here.

In the case of `C=C(C)[C@@H]1CC[C@]2(CO)CC[C@]3(C)[C@H](CC[C@@H]4[C@@]5(C)CC[C@H](O)C(C)(C)[C@@H]5CC[C@]43C)[C@@H]12` [Betulin, Lup-20(29)-ene-3β,28-diol], the IC50 in experiment [1], in experiment [2] and in experiment [3] was greater than 100 µM in each case.

For the molecule `C=C(C)[C@@H]1CC[C@]2(C(=O)O)CC[C@]3(C)[C@H](CC[C@@H]4[C@@]5(C)CC[C@H](O)C(C)(C)[C@@H]5CC[C@]43C)[C@@H]12` [Betulinic acid, reference compound], the IC50 was 38.6 ± 2.91 µM in experiment [1] and 39.5 ± 2.19 µM in experiment [3].

Regarding `C=C(C)[C@@H]1CC[C@]2(COC(=O)C(C)NC(C)=O)CC[C@]3(C)C(CC[C@@H]4[C@@]5(C)CC[C@H](O)C(C)(C)[C@@H]5CC[C@]43C)[C@@H]12` (some centres unmarked) [YWZ-002], the values for the IC50 in experiment [1], in experiment [2] and in experiment [3] were 4.24 ± 0.23 µM, 6.58 ± 0.24 µM and 10.6 ± 0.62 µM, respectively.

As for `C=C(C)[C@@H]1CC[C@]2(COC(=O)C(NC(C)=O)C(C)C)CC[C@]3(C)C(CC[C@@H]4[C@@]5(C)CC[C@H](O)C(C)(C)[C@@H]5CC[C@]43C)[C@@H]12` (some centres unmarked) [YWZ-003], the IC50 in experiment [1] came to 11.4 ± 0.89 µM; in experiment [2] it was 14.1 ± 0.83 µM; in experiment [3], 10.9 ± 0.76 µM.

As for `C=C(C)[C@@H]1CC[C@]2(COC(=O)C3CCCN3C(C)=O)CC[C@]3(C)C(CC[C@@H]4[C@@]5(C)CC[C@H](O)C(C)(C)[C@@H]5CC[C@]43C)[C@@H]12` (some centres unmarked) [YWZ-004], the values for the IC50 in experiment [1], in experiment [2] and in experiment [3] were 5.32 ± 0.21 µM, 8.88 ± 0.62 µM and 2.13 ± 0.05 µM, respectively.

Consider `C=C(C)[C@@H]1CC[C@]2(COC(=O)C(CC(C)C)NC(C)=O)CC[C@]3(C)C(CC[C@@H]4[C@@]5(C)CC[C@H](O)C(C)(C)[C@@H]5CC[C@]43C)[C@@H]12` (some centres unmarked) [YWZ-005], for which the values for the IC50 in experiment [1], in experiment [2] and in experiment [3] were 19.7 ± 0.83 µM, 18.1 ± 1.51 µM and 1.38 ± 0.04 µM, respectively.

For the molecule `C=C(C)[C@@H]1CC[C@]2(COC(=O)C(NC(C)=O)C(C)CC)CC[C@]3(C)C(CC[C@@H]4[C@@]5(C)CC[C@H](O)C(C)(C)[C@@H]5CC[C@]43C)[C@@H]12` (some centres unmarked) [YWZ-006], the IC50 in experiment [1] amounted to 10.2 ± 0.69 µM; in experiment [2] it was 15 ± 1.31 µM; in experiment [3], 7.26 ± 0.1 µM.
